Patent US6998394B2, “Process for isolating physalins from plants and pharmaceutical compositions containing physalins” (Fundacao Oswaldo Cruz - FIOCRUZ, priority 1999, dated 2006)
Values after ≈ are worked out from the molar mass of the structure shown.

How the values were obtained:
[1] = test system: trypomastigotes of Trypanosoma cruzi (Y strain); assay: In vitro antitrypanosomial activity against T. cruzi trypomastigotes (count of viable parasites); assay type: cell-based
Description: In vitro studies using pure physalins are carried out with trypomastigotes of Trypanosoma cruzi.
T. cruzi Y strain is maintained in MK2 strain cell culture in a RPMI medium+10% bovine fetal serum, at 37° C., under 5% CO2. This material is centrifuged during 15 minutes at 1500 rpm. Afterwards, the material is maintained in rest at 37° C. for 2 hours. The supernatant is centrifuged again during 30 minutes at 3000 rpm. The trypomastigotes (5×10^5/well) in RPMI medium with 10% bovine fetal serum and antibiotic are incubated in wells with different concentrations of physalin B or physalin D. After 24–48 hours, the viable parasites maintained at a temperature of 4° C. are counted. Each experiment was carried out in triplicate.

[2] = test system: human tumors like hepatoma, cervix uteri, lung and colon cells; conditions: in vivo and in vitro tests; cited from earlier work
[3] = test system: Trypanosoma brucei rhodesiense; conditions: commonly used trypanocidal drug; cited from earlier work
[4] = test system: nitric oxide production by macrophages; assay: Nitric oxide (nitrite) production by stimulated peritoneal macrophages (Griess assay); assay type: cell-based; conditions: 24 hours
Description: In a second test, thyoglycollate-elicited peritoneal macrophages were stimulated with LPS (500 ng/ml), IFNγ (5 ng/ml), or IFNγ +LPS in the presence of various concentrations of physalin B. Cell-free supernatants were collected 24 hours after stimulation and tested for nitrite production by Griess assay.
In a third test, thyoglycollate-elicited peritoneal macrophages were stimulated with LPS (500 ng/ml)+IFNγ (5 ng/ml). Physalin B (2 μg/ml) was added 0, 2, 4 and 6 hours after IFNγ+LPS stimulation. Cell-free supernatants were collected 24 hours after stimulation and tested for nitrite production by Griess assay. IFNγ+LPS was used as control.
In a fourth test, thyoglycollate-elicited peritoneal macrophages were stimulated with LPS (500 ng/ml)+IFNγ (5 ng/ml) in the presence of physalin B (2 μg/ml) or indomethacyn (1 μg/ml). Cell-free supernatants were collected 24 hours after stimulation and tested for nitrite production by Griess assay.

[5] = test system: TNFα production by macrophages; assay: TNFα production by LPS-stimulated peritoneal macrophages (ELISA); assay type: cell-based; conditions: LPS 500 ng/ml, various concentrations, supernatants 4 hours after stimulation, FIG. 3A
Description: (§1) In a first test, thyoglycollate-elicited peritoneal macrophages were stimulated with LPS (500 ng/ml) in the presence of various concentrations of physalin B. Cell-free supernatants were collected 4 hours after stimulation and tested for TNα and IL-6 production by ELISA.

[6] = test system: BALB/c spleen cells or thyoglycollate-elicited peritoneal macrophages; assay: Viability of spleen cells and peritoneal macrophages (MTT); assay type: cell-based; conditions: one day or three days of culturing, FIG. 9
Description: In the last test, BALB/c spleen cells or thyoglycollate-elicited peritoneal macrophages were cultured in the presence of several concentrations of physalin B. After one day (FIG. 9B) or three days (FIG. 9A) of culturing, plates were pulsed with MTT. Cell-viability was evaluated 2 hours later by optical density measuring at 570 nm.

[7] = test system: ConA stimulated splenocytes; assay: Proliferation of ConA-stimulated splenocytes (3H thymidine uptake); assay type: cell-based, BALB/c; conditions: ConA 1 μg/ml, several concentrations, FIG. 7
Description: In a fifth test, BALB/c spleen cells were stimulated with ConA (1 μg/ml) in the presence of several concentrations of physalin B. After 24 hours, cultures were pulsed with ^3H thymidine. Proliferation was assessed by measurement of thymidine uptake.

[8] = test system: IL-6 production by macrophages; assay: IL-6 production by LPS-stimulated peritoneal macrophages (ELISA); assay type: cell-based; conditions: LPS 500 ng/ml, various concentrations, supernatants 4 hours after stimulation, FIG. 3B
Description: as §1

[9] = test system: Leishmania amazonensis in peritoneal macrophages; assay: In vitro infection assay using peritoneal macrophages infected with Leishmania amazonensis; assay type: cell-based; conditions: 10 μg/ml
Description: Peritoneal macrophages were incubated during 2 hours at 37° C. in 24 wells plates with laminas. After washing to remove non-bound cells, the wells were incubated with stationary phase promastigotes of Leishmania amazonensis (parasites/macrophages in a ratio of 10:1). After 18 hours, the cultures were washed to remove the free parasites. After 24 hours, physalin B solution is added to the wells. The laminas are collected, fixed with methanol and dyed with Giemsa. The infection level was determined by counting parasite quantity and the infected macrophages percentage.

[10] = test system: promastigotes of Leishmania amazonensis; assay: In vitro antileishmanicidal activity on promastigotes (MTT viability); assay type: cell-based; conditions: 20 μg/ml
Description: Stationary phase promastigotes of Leishmania amazonensis were obtained from parasite cultures in LIT medium with 10% bovine fetal serum. The assays were standardized in plates with 96 wells. Promastigotes were plaque harbored, in triplicate, in 100 μl of LIT medium. 10 μl of physalin B solution and 10 μl of a positive control (Amphotericin B) are added to the wells. Several dilutions were used. Parasite viability was determined after incubation with MTT by reading the absorbance at 570 nm in ELISA Microplate.

[11] = test system: IL-2 production by ConA stimulated splenocytes; assay: IL-2 production by ConA-stimulated splenocytes (ELISA); assay type: cell-based, BALB/c; conditions: ConA 1 μg/ml, several concentrations, 24 hours, FIG. 8
Description: In a sixth test, BALB/c spleen cells were stimulated with ConA (1 μg/ml) in the presence of several concentrations of physalin B. Cell-free supernatants were collected 24 hours after stimulation and tested for IL-2 production by ELISA.

## C[C@@]12C[C@H]3OC(=O)[C@@H]1CO[C@@]14O[C@]5([C@H]2C1=O)[C@@](O)(CC[C@H]1[C@H]4C[C@@H](O)[C@@]2(O)CC=CC(=O)[C@]12C)C(=O)O[C@@]35C [Physalin D]
[1]; dose 40 μg/ml, contact period 24 hours
  Mortality of Parasite (%): 100%
[1]; dose 40 μg/ml, contact period 48 hours
  Mortality of Parasite (%): 100%
[2]
  activity against human tumors: active

## C=C1C(=O)O[C@@H]2C[C@@]1(C)[C@@H]1C(=O)[C@]3(O)O[C@]14[C@@]2(C)OC(=O)[C@@]4(O)CC[C@H]1[C@H]3[C@H](O)C=C2CC=CC(=O)[C@@]21C [physalin A]
[2]
  activity against human tumors: active

## Cc1ccc(C(=O)Nc2ccc(S(=O)(=O)O)c3cc(S(=O)(=O)O)cc(S(=O)(=O)O)c23)cc1NC(=O)c1cccc(NC(=O)Nc2cccc(C(=O)Nc3cc(C(=O)Nc4ccc(S(=O)(=O)O)c5cc(S(=O)(=O)O)cc(S(=O)(=O)O)c45)ccc3C)c2)c1 [suramin]
[3]
  IC50: 0.0107 µg/mL (≈ 8.25 nM)

## C[C@@H]1C(=O)O[C@@H]2C[C@@]1(C)C1C(=O)[C@]3(O)O[C@@]14[C@@](O)(CCC1C3[C@H](O)C=C3C=CCC(=O)[C@@]31C)C(=O)O[C@@]24C (stereo partly shown) [physalin L]
[2]
  activity against human tumors: active

## C[C@]12C(=O)C=CCC1=CC[C@@H]1[C@@H]2CC[C@]2(O)C(=O)O[C@@]3(C)[C@H]4C[C@]5(C)[C@@H](CO[C@@]16O[C@@]32[C@H]5C6=O)C(=O)O4 [Physalin B]
[4]; 2 μg/ml added 0, 2, 4 and 6 hours after IFNγ+LPS stimulation, FIG. 5
  nitric oxide production, physalin B added at different times: time-dependence of the inhibition
[4]; LPS 500 ng/ml, IFNγ 5 ng/ml or IFNγ+LPS, various concentrations, FIG. 4
  nitric oxide production by macrophages: inhibitory properties
[4]; LPS+IFNγ, physalin B 2 μg/ml, indomethacyn 1 μg/ml, FIG. 6
  nitric oxide production in the presence of indomethacyn: addition of indomethacyn does not block the inhibition
[5]
  TNFα production by macrophages: inhibitory properties
[6]
  concentrations at which non-toxic in vitro (cell viability, MTT): below 5 μg/ml
[7]
  proliferation of ConA stimulated splenocytes (thymidine uptake): inhibits proliferation
[1]; dose 2.5 mg/ml, contact period 24 hours
  Mortality of Parasite (%): 100%
[1]; dose 2.5 mg/ml, contact period 48 hours
  Mortality of Parasite (%): 100%
[8]
  IL-6 production by macrophages: inhibitory properties
[9]
  in vitro reduction in the infection of peritoneal macrophages: 100%
[10]
  parasite mortality: 100%
[11]
  IL-2 production by ConA stimulated splenocytes: inhibits IL-2 production

## C[C@@]12C[C@H]3OC(=O)[C@@H]1CO[C@]14O[C@]5([C@H]2C1=O)[C@@](O)(CC[C@H]1[C@H]4C[C@H]2O[C@]24CC=CC(=O)[C@]14C)C(=O)O[C@@]35C [physalin F]
[2]
  activity against human tumors: active
